According to patent US9890171B2, “Aldosterone synthase inhibitors” (Boehringer Ingelheim International GmbH, priority 2014, dated 2018):

These compounds were tested against aldosterone synthase (CYP11B2) (Macaca fascicularis, UniProt A0A2K5UPL9) (assay: aldosterone synthase inhibition assay). Conditions: cynomolgus adrenal gland mitochondria, 2 μM corticosterone, aldosterone quantified by mass spectrometry.
Format: biochemical, cynomolgus monkey
Procedure, shortened: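 Cynomolgus adrenal mitochondria ([…]) used as CYP11B2 source with 2 μM corticosterone in 100 mM potassium phosphate pH 7.4, 1% DMSO; reaction started with 1 mM NADPH, run 60-90 min at 37° C. Aldosterone measured by mass spectrometry; IC50 from 4-parameter logistic fit, no-NADPH blank as 0%.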

Chain of aldosterone synthase (CYP11B2) (A0A2K5UPL9 1-503): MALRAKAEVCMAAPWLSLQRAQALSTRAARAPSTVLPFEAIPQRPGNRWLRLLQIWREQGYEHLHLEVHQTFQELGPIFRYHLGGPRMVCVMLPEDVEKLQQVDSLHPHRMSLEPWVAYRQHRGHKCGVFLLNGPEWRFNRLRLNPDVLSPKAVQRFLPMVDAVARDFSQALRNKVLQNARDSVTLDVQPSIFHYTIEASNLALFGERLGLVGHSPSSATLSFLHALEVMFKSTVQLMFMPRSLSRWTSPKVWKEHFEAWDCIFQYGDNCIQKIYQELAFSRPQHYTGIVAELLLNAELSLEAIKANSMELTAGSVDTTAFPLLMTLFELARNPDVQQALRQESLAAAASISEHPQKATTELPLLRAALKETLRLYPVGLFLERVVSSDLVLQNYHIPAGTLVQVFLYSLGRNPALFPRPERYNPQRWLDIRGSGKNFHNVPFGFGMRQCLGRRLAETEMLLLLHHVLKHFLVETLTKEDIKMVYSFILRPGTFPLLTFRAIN

| IC50 [nM] | SMILES |
| --- | --- |
| 5.7 | Cn1ncc2ccc(-c3cncc4c3COCC4C#N)cc21 (stereo not shown) [Compound 9, 8-(1-Methyl-1H-indazol-6-yl)-3,4-dihydro-1H-pyrano[4,3-c]pyridine-4-carbonitrile] |
| 64.9 | NC(=O)N1CCCc2cc(-c3cncc4c3COCC4O)cnc21 (stereo not shown) [Compound 102, 6-(4-Hydroxy-3,4-dihydro-1H-pyrano[4,3-c]pyridin-8-yl)-3,4-dihydro-2H-[1,8]naphthyridine-1-carboxylic acid amide] |
| 51.1 | NC(=O)N1CCCc2cc(-c3cncc4c3C(O)COC4)cnc21 (stereo not shown) [Compound 160, 6-(4-Hydroxy-3,4-dihydro-1H-pyrano[3,4-c]pyridin-5-yl)-3,4-dihydro-2H-[1,8]naphthyridine-1-carboxylic acid amide] |
| 124 | CCS(=O)(=O)NC1COCc2c(-c3ccc4c(c3)CCC4O)cncc21 (stereo not shown) [Compound 184, Ethanesulfonic acid [8-(1-hydroxy-indan-5-yl)-3,4-dihydro-1H-pyrano[4,3-c]pyridin-4-yl]-amide] |
